Consider 46 compounds from US12012467B2, “Small molecule DCN1 inhibitors and therapeutic methods using the same” (THE REGENTS OF THE UNIVERSITY OF MICHIGAN, priority 2017, dated 2024).

Square brackets hold non-standard residues; d marks the D form. Peptide text beside a SMILES is read from it. * marks the point of attachment. Ala(6-iPr-benzothiazol-2-yl) = CC(C)c1ccc2nc(C[C@H](N)C(=O)O)sc2c1; Gly(piperidin-4-yl) = N[C@H](C(=O)O)C1CCNCC1; 2Nal = N[C@@H](Cc1ccc2ccccc2c1)C(=O)O; Isovaleryl = CC(C)CC(=O)*; Abu = CC[C@H](N)C(=O)O; NHBn = c1ccc(CN*)cc1; Propionyl = CCC(=O)*; Moc = COC(=O)*

DCN1, sequence (Q96GG9 58-259): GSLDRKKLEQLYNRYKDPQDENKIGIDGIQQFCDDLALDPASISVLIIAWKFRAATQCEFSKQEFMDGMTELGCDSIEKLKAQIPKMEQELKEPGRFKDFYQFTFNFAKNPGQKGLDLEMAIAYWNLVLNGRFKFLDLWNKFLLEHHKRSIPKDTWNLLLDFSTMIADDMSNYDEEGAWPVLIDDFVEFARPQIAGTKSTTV

The target in the first test is DCN1 (Homo sapiens (Human), UniProt Q96GG9). The test is described as follows: Competitive FP binding assay. The conditions noted are these: bounds given in μM; read-out: Binding affinity to DCN1 (IC50). Summed up:
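FP competition with DCN1 in 100 mM phosphate pH 6.5, 0.02% Tween-20, 2% DMSO, probe 5 nM final. Equilibrated 30 min at room temperature with shaking. DCN1 was His6-tagged (uncleaved), expressed in E. coli Rosetta2 and purified by Ni-NTA and gel filtration.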
For the compound `CCC(=O)N[C@H](Cc1ccc2ccccc2c1)C(=O)N[C@H](C(=O)N[C@@H](CCCCN)C(=O)NC(c1ccccc1)c1ccccc1)C1CCCC1` [Example 145], the IC50 is more than 10 µM. The same measure, in the same setting: the same measure for `CCC(=O)N[C@@H](Cc1nc2ccc(Cl)cc2s1)C(=O)N[C@H](CN)Cc1ccccc1` (stereo in doubt) [Example 87]: more than 10 µM; for `CCC(=O)N[C@@H](Cc1nc2ccc(C(C)C)cc2s1)C(=O)N[C@H](C(=O)N[C@@H](CCCCN)C(=O)N[C@@H](CC(C)C)C(N)=O)C1CCNCC1` [Example 288] (Propionyl-[Ala(6-iPr-benzothiazol-2-yl)][Gly(piperidin-4-yl)]KL-NH2): more than 10 µM.

In the case of `CC(C)c1ccc2nc(C[C@H](NC(=O)C3CC3)C(=O)NCCN)sc2c1` [Example 96], the IC50 was more than 10 µM. The same measure, in the same setting: for `CCC(=O)N[C@H](Cc1nc2ccc(Cl)cc2s1)C(=O)N[C@@H](C(=O)N[C@H](CCCCN)C(=O)N[C@H]1CCOc2ccccc21)C1CCOCC1` [Example 204] the value was more than 10 µM; for `CCC(=O)N[C@H](Cc1nc2ccc(Cl)cc2s1)C(=O)N[C@H](C(=O)N[C@@H](CCCCN)C(=O)N[C@@H]1CNCc2ccccc21)C1CCOCC1` [Example 44], more than 1 µM. Same read-out and setting: for `CCC(=O)N[C@@H](Cc1nc2ccc(Cl)cc2s1)C(=O)NCc1ccccn1` [Example 251] the value was more than 5 µM; for `CCC(=O)N[C@@H](Cc1ccc2ccccc2c1)C(=O)N[C@H](C(=O)N[C@@H](CCCCN)C(=O)N[C@@H](CN)c1ccccc1)C1CCCC1` [Example 151], more than 10 µM; for `CCC(=O)N[C@@H](Cc1nc2ccccc2n1C)C(=O)N[C@H](C(=O)N[C@@H](CCCCN)C(=O)NC(c1ccccc1)c1ccccc1)[C@@H](C)CC` [Example 136], more than 5 µM.

`CCC(=O)N[C@@H](Cc1nc(C)c(-c2ccc(C#N)cc2)s1)C(=O)N[C@H](CN)Cc1ccccc1` [Example 105]: the IC50 is more than 10 µM.

As for `CCC(=O)N[C@@H](Cc1ccc2ccccc2c1)C(=O)N[C@@H](CC(F)(F)F)C(=O)N[C@@H](CCCCN)C(=O)NC(c1ccccc1)c1ccccc1` [Example 23], the half-inhibitory concentration (IC50) is more than 1 µM.

Still in this test, the particulars now being: read-out: Binding affinity to DCN1 (IC50 (nM)).
Turning to `CCC(=O)N[C@@H](Cc1nc2ccc(Cl)cc2s1)C(=O)N[C@H](C(=O)N[C@@H](CCCCN)C(=O)N[C@H]1CNCc2ccccc21)C1CCCC1` [Example 162], the IC50 came to 0.797 µM. Same read-out and setting: for `CCC(=O)N[C@@H](Cc1nc2ccc(C)cc2s1)C(=O)N[C@H](C(=O)N[C@H](C(=O)N[C@@H]1CCOc2ccccc21)C1CCNCC1)C1CCOCC1` [Example 190] the value was 0.412 µM; for `CCCC(=O)N[C@@H](Cc1nc2ccc(C(C)C)cc2s1)C(=O)N[C@H](CN)[C@@H](C)CC` [Example 51, N—((S)-1-(((2S,3 S)-1-amino-3-methylpentan-2-yl)amino)-3-(6-isopropylbenzo[d]thiazol-2-yl)-1-oxopropan-2-yl)butyramide], 0.944 ± 0.176 µM; for `CCC(=O)N[C@@H](Cc1ccc2ccccc2c1)C(=O)N[C@H](C(=O)N[C@@H](CCCCN)C(=O)N[C@@H]1CCOc2cccc(Cl)c21)C1CCCC1` [Example 163], 0.103 µM. The same measure, in the same setting: for `CCC(=O)N[C@@H](Cc1nc2ccc(C(C)C)cc2s1)C(=O)N[C@H](CNC(=O)c1ccncc1)C1CCCCC1` [Example 61] the value was 0.128 µM. Still for that read-out and setting: for `CCC(=O)N[C@@H](Cc1nc2ccc(Cl)cc2s1)C(=O)N[C@H](C(=O)N[C@@H](CCCCN)C(=O)N[C@@H](c1ccccc1)c1cn(CCO)nn1)C1CCOCC1` [249 & 250] the value was 0.12 µM; for `CCC(=O)N[C@@H](Cc1nc2ccc(C(C)C)cc2s1)C(=O)N[C@H](CNC(=O)C1CCN(C2COC2)CC1)C1CCCCC1` [Example 63], 0.0673 µM. Consider `CCC(=O)N[C@@H](Cc1ccc2ccccc2c1)C(=O)N[C@H](C(=O)N[C@@H](CCCCN)C(=O)N[C@@H]1CCCc2ccccc21)[C@@H](C)CC` [Example 15], for which the IC50 was 0.461 µM. Consider `CC[C@H](C)[C@H](NC(=O)[C@H](Cc1nc2ccc(C(C)C)cc2s1)NC(C)=O)C(=O)N[C@@H](CCCCN)C(N)=O` [Example 6, (S)-2-((2S,3 S)-2-((S)-2-acetamido-3-(6-isopropylbenzo[d]thiazol-2-yl)propanamido)-3-methylpentanamido)-6-aminohexanamide], for which the IC50 was 0.632 ± 0.029 µM. For the compound `CCC(=O)N[C@@H](Cc1nc2ccc(C(C)C)cc2s1)C(=O)N[C@H](C(=O)N[C@@H](CCCCN)C(=O)N[C@@H](CC(C)C)C(N)=O)C(C)C` [Example 282] (Propionyl-[Ala(6-iPr-benzothiazol-2-yl)]VKL-NH2), the IC50 was found to be 0.072 µM.

For `CCC(=O)N[C@@H](Cc1ccc2ccccc2c1)C(=O)N[C@H](C(=O)N[C@@H](CCCCN1CCOCC1)C(=O)NC(c1ccc(F)cc1)c1ccc(F)cc1)C1CCCC1` [Example 141], the 50% inhibitory concentration (IC50) was 0.871 µM.

Take `CCC(=O)N[C@@H](Cc1nc2ccc(CC)cc2s1)C(=O)N[C@H](C(=O)N[C@@H](CCCCN)C(=O)N[C@@H]1CCOc2ccccc21)C1CCOCC1` [Example 186]: the IC50 was found to be 0.169 µM. The same measure, in the same setting: for `CCC(=O)N[C@@H](Cc1ccc2ccccc2c1)C(=O)N[C@H](C(=O)N[C@@H](CCCCN)C(=O)NCc1ccccc1)[C@@H](C)CC` [Example 10] (Propionyl-[2Nal]-Ile-Lys-NHBn) the value was 3.9 µM; for `CCC(=O)N[C@@H](Cc1nc2ccc(C(C)C)cc2s1)C(=O)N[C@H](Cn1cc(CO)nn1)C1CCCCC1` [Example 83], 0.656 µM. Regarding `CC[C@H](C)[C@H](NC(=O)[C@H](Cc1nc2ccc(C(C)C)cc2s1)NC(=O)OC)C(=O)N[C@@H](CCCCN)C(=O)N[C@@H](CC(C)C)C(N)=O` [Example 279] (Moc-[Ala(6-iPr-benzothiazol-2-yl)]IKL-NH2), the IC50 is 0.217 µM. On the same count and under the same terms, for `CC[C@H](C)[C@@H](CN)NC(=O)[C@H](Cc1nc2ccc(C(C)C)cc2s1)NC(C)=O` [Example 46, (S)-2-acetamido-N-((2S,3S)-1-amino-3-methylpentan-2-yl)-3-(6-isopropylbenzo[d]thiazol-2-yl)propanamide] the value was 0.281 ± 0.029 µM. In the case of `CCC(=O)N[C@@H](Cc1nc2ccc(C(C)C)cc2s1)C(=O)N[C@H](CN)Cc1ccccc1` [Example 55, (S)—N—((S)-1-amino-3-phenylpropan-2-yl)-3-(6-isopropylbenzo[d]thiazol-2-yl)-2-propionamidopropanamide], the IC50 was 0.179 µM. Regarding `CCC(=O)N[C@@H](Cc1nc2ccc(C(C)C)cc2s1)C(=O)N[C@H](CN)C1CCCCC1` [Example 56, (S)—N—((S)-2-amino-1-cyclohexylethyl)-3-(6-isopropylbenzo[d]thiazol-2-yl)-2-propionamidopropanamide], the IC50 was found to be 0.0796 µM. On the same count and under the same terms, for `CCC(=O)N[C@@H](Cc1cn2cc(Cl)ccc2n1)C(=O)N[C@H](C(=O)N[C@@H](CCCCN)C(=O)N[C@@H]1CCOc2ccccc21)C1CCOCC1` [Example 208] the value was 0.157 µM; for `CCC(=O)N[C@@H](Cc1nc2ccc(Cl)cc2o1)C(=O)N[C@H](C(=O)N[C@@H](CCCCN)C(=O)N[C@@H]1CCOc2ccccc21)C1CCOCC1` [Example 198], 0.12 µM; for `CCC(=O)N[C@@H](Cc1nc2ccc(C)cc2s1)C(=O)N[C@H](C(=O)N[C@@H](CCCCN)C(=O)N[C@@H]1CCOc2ccccc21)C(C)(C)O` [Example 182], 0.375 µM. On the same count and under the same terms, the same measure for `CCC(=O)N[C@@H](Cc1nc2ccc(C(C)C)cc2s1)C(=O)N[C@H](CNC(=O)c1c[nH]cn1)C1CCCCC1` [Example 67]: 0.257 µM. Still for that read-out and setting: for `CCC(=O)N[C@@H](Cc1ccc2ccccc2c1)C(=O)N[C@H](C(=O)N[C@@H](CCCCNC1CCN(C)CC1)C(=O)NC(c1ccccc1)c1ccccc1)C1CCCC1` [Example 147] the value was 0.354 µM; for `CCC(=O)N[C@@H](Cc1ccc2ccccc2c1)C(=O)N[C@H](C(=O)N[C@@H](CCCCN)C(=O)NC(c1ccccc1)c1ccccc1)[C@@H](C)CC` [Example 12], 0.611 ± 0.193 µM. Regarding `CCC(=O)N[C@@H](Cc1nc2ccc(Cl)cc2s1)C(=O)N[C@H](C(=O)NCCCCCN(C)C)C1CCCC1` [Example 224], the IC50 is 0.575 µM. Same read-out and setting: for `CCC(=O)N[C@@H](Cc1ccc2ccccc2c1)C(=O)N[C@H](C(=O)N[C@@H](CCCCN)C(=O)N[C@@H]1CCOc2ccc(Cl)cc21)C1CCCC1` [Example 164] the value was 0.394 µM.

With `CCC(=O)N[C@@H](Cc1nc2ccc(C(C)C)cc2s1)C(=O)N[C@@H](CC)C(=O)N[C@@H](CCCCN)C(=O)N[C@@H](CC(C)C)C(N)=O` [Example 281] (Propionyl-[Ala(6-iPr-benzothiazol-2-yl)][Abu]KL-NH2), the IC50 was 0.0374 µM. On the same count and under the same terms, the same measure for `CCC(=O)N[C@@H](Cc1nc2ccc(Br)cc2s1)C(=O)N[C@H](CN)Cc1ccccc1` [Example 222]: 0.858 µM. On the same count and under the same terms, for `CCC(=O)N[C@@H](Cc1nc2ccc(C(C)C)cc2s1)C(=O)N[C@H](CNS(=O)(=O)C1CCN(C)CC1)C1CCCCC1` [Example 76] the value was 0.0657 µM; for `CCC(=O)N[C@@H](Cc1nc2ccc(OC)cc2o1)C(=O)N[C@H](C(=O)N[C@@H](CCCCN)C(=O)NC(c1ccccc1)c1ccccc1)[C@@H](C)CC` [Example 157], 0.265 µM. On to `CCC(=O)N[C@@H](Cc1nc2ccc(Cl)cc2s1)C(=O)N[C@H](CN)C1CCOCC1` [Example 219], for which the IC50 stood at 1.56 µM. On the same count and under the same terms, for `CCC(=O)N[C@@H](Cc1nc2ccc(Cl)cc2s1)C(=O)N[C@H](CN)CC1CCCCC1` [Example 218] the value was 0.316 µM; for `CCC(=O)N[C@@H](Cc1ccc2ccccc2n1)C(=O)N[C@H](C(=O)N[C@@H](CCCCN)C(=O)NC(c1ccccc1)c1ccccc1)[C@@H](C)CC` [Example 130], 2.37 µM.

With `CC[C@H](C)[C@H](NC(=O)[C@H](Cc1nc2ccc(C(C)C)cc2s1)NC(=O)CC(C)C)C(=O)N[C@@H](CCCCN)C(=O)N[C@@H](CC(C)C)C(N)=O` [Example 277] (Isovaleryl-[Ala(6-iPr-benzothiazol-2-yl)]IKL-NH2), the IC50 was 0.517 µM.

Take `CCC(=O)N[C@@H](Cc1ccc2ccccc2c1)C(=O)N[C@H](C(=O)N[C@@H](CCCCN)C(=O)NC(c1ccc(Cl)cc1)c1ccc(Cl)cc1)[C@@H](C)CC` [Example 129]: the IC50 stood at 0.748 µM.

By IC50 is commonly meant the concentration that gives 50% inhibition.
